Laboratory results published in the NIST ThermoML archive (doi:10.1016/j.jct.2015.08.033).

Assay: mn = molality of the nth substance listed, in mol/kg
Settings: 100 kPa, Liquid; for speed of sound: Frequency=3 MHz, Sing-around technique in a fixed-path interferometer; for mass density: Vibrating tube method

O=S(=O)([O-])C(F)(F)F.O=S(=O)([O-])C(F)(F)F.[Mg+2] [magnesium triflate] + CN(C)C=O
Settings	mass density, 298.15 K [kg/m3]	mass density, 303.15 K [kg/m3]	mass density, 308.15 K [kg/m3]	mass density, 313.15 K [kg/m3]	mass density, 318.15 K [kg/m3]	speed of sound, 298.15 K [m/s]	speed of sound, 303.15 K [m/s]	speed of sound, 308.15 K [m/s]	speed of sound, 313.15 K [m/s]	speed of sound, 318.15 K [m/s]
m1 = 0.01036	946.019	941.245	936.47	931.673	926.87	–	–	–	–	–
m1 = 0.01706	947.369	942.601	937.828	933.038	928.233	1457.4	1438.2	1418.9	1399.7	1380.5
m1 = 0.0217	948.297	943.537	938.762	933.973	929.172	1457.3	1438.2	1418.9	1399.8	1380.7
m1 = 0.03662	951.268	946.512	941.741	936.956	932.159	1457.3	1438.2	1419.1	1400	1380.9
m1 = 0.0512	954.144	949.392	944.627	939.848	935.055	1457.3	1438.2	1419.1	1400.1	1381.1
m1 = 0.06466	956.788	952.038	947.275	942.499	937.711	1457.2	1438.2	1419.1	1400.2	1381.2
m1 = 0.082	960.152	955.393	950.635	945.853	941.072	1457.1	1438.1	1419.1	1400.2	1381.3
m1 = 0.102	964.032	959.291	954.537	949.768	944.991	1456.9	1438	1419.1	1400.2	1381.5
m1 = 0.1234	968.107	963.366	958.615	953.853	949.079	1456.7	1437.9	1419	1400.3	1381.5
m1 = 0.1544	974.074	969.343	964.6	959.846	955.083	1456.4	1437.6	1418.9	1400.2	1381.6
